Laboratory results taken from PubChem BioAssay AID2060495 (Molecular Pharmacology Branch, DTP, NCI, 2025).
Values joined by “and” are separate entries in the source; they are usually repeats but may differ in a detail not shown here. Identical values can stand only once.

System: 521955-158-R2-J5-PDC complex spheroid viability
Experiment: Anticancer human tumor 521955-158-R2-J5-PDC patient-derived pancreatic carcinoma cell line growth inhibition [GQUAD]
Conditions: for viability, T/C: stronger effect = lower value
Description: DNA G-quadruplex Stabilizer Agents in Combinations in Complex Spheroids
A high-throughput screen of multi-cell type tumor spheroids was designed to identify active combinations of DNA G-quadruplex stabilizer agents and targeted small molecules. Complex spheroids include a stromal component modeled by human endothelial cells (HUVEC) and fibroblasts modeled by human mesenchymal stem cells (MSCs). The concentration ranges selected for each drug and investigational agent were based upon clinically achievable concentrations if the clinical Cmax of the agent was known.
Compounds. The drugs and investigational agents: pidnarulex (CX-5461; NSC782164), APTO-253 (NSC789042), BRACO-19 (NSC847499), peposertib (NSC802822), ceralasertib (NSC780249), elimusertib (NSC800525), camonsertib (NSC841442), AZD-1390 (NSC803789), olaparib (NSC753686), talazoparib (NSC767125), ART-558 (NSC835418), sotorasib (NSC818433), MRTX-1133 (NSC836407), SN-38 (NSC673596), topotecan (NSC609699), etoposide (NSC141540), doxorubicin (NSC123127), gemcitabine (NSC613327), 5-fluorouracil (NSC19893), paclitaxel (NSC125973), vemurafenib (NSC761431), panobinostat (NSC761190), R-306465 (JNJ-16241199; NSC773264), adavosertib (NSC754352), TP-3654 (NSC805149), carboplatin (NSC241240), KSQ-4279 (NSC840948), and staurosporine (NSC755774) were obtained from the National Cancer Institute (NCI) Developmental Therapeutics Program Chemical Repository (34). The FDA-approved anticancer drug set is available from the NCI Developmental Therapeutics Program. […] The stock solutions were prepared in dimethyl sulfoxide (DMSO, Sigma-Aldrich, St. Louis, MO, cat. D2650) at 800-fold the tested concentration and stored at -70 degrees C prior to their use. All drugs and investigational agents were tested over a range starting from a high concentration at or near the clinical Cmax and decreasing in half-log increments. If the clinical Cmax for an agent had not been determined, the highest concentration tested was 10 microM.
2.3 Cell Culture. All cells were maintained in an incubator at 37 degrees C and 5% CO2 with 95% humidity. The PDC lines were cultured according to standard operating procedures established by the NCI PDMR. All PDCs were thawed and cultured in Matrigel-coated flasks prepared with a working solution of 1X Ham's F-12 nutrient mix, without supplementation (Invitrogen, cat. 11765054), 100 U/mL penicillin-streptomycin (Invitrogen, cat. 15140122), and 2.5% Matrigel (Corning Inc., cat. 354248) for the first three passages. The 857933-349-R-J2-PDC line was cultured in 6C/Colon 1B media, which includes advanced DMEM/F-12 (Thermo Fisher Scientific, cat. 12634028), 10 mM HEPES (Thermo Fisher Scientific, cat. 15630080), 1X GlutaMAX supplement (Thermo Fisher Scientific, cat. 35050061), 0.1 mg/mL primocin (InvivoGen, cat. ant-pm-2), 10% defined fetal bovine serum, heat inactivated (HyClone Laboratories Inc., cat. SH30070.03HI), 50% L-WRN conditioned media (ATCC, cat. CRL-3276), 1.25 mM N-Acetyl-L-cysteine (Sigma-Aldrich, cat. A9165), 10 mM nicotinamide (Sigma-Aldrich, cat. N0636), 1X B-27 supplement (Thermo Fisher Scientific, cat. 17504044), 1X N-2 supplement (Thermo Fisher Scientific, cat. 17502048), 10 microM Y-27632 dihydrochloride (Tocris Bioscience, cat. 1254), and 50 ng/mL human EGF recombinant protein (Thermo Fisher Scientific, cat. PHG0311). The 485176-168-R4-J1-PDC line was cultured in Panc media, which includes all 6C/Colon 1B media components plus 100 ng/mL human FGF-10 (Thermo Fisher Scientific, cat. 100-26), 500 nM SB-431542 (Selleckchem, cat. S1067), and gastrin (Tocris, cat. 3006).
[…]

[1] = curve of first compound, second compound 0.0316 µM
[2] = curve of first compound, second compound 0.1 µM
[3] = curve of first compound, second compound 0.316 µM
[4] = curve of first compound, second compound 1 µM
[5] = curve of first compound, second compound 3.16 µM
[6] = curve of first compound, second compound 10 µM
[7] = second compound 0.0316 µM, first compound 0.0316 µM
[8] = second compound 0.0316 µM, first compound 0.1 µM
[9] = second compound 0.0316 µM, first compound 0.316 µM
[10] = second compound 0.0316 µM, first compound 1 µM
[11] = second compound 0.0316 µM, first compound 3.16 µM
[12] = second compound 0.0316 µM, first compound 10 µM
[13] = second compound 0.1 µM, first compound 0.0316 µM
[14] = second compound 0.1 µM, first compound 0.1 µM
[15] = second compound 0.1 µM, first compound 0.316 µM
[16] = second compound 0.1 µM, first compound 1 µM
[17] = second compound 0.1 µM, first compound 3.16 µM
[18] = second compound 0.1 µM, first compound 10 µM
[19] = second compound 0.316 µM, first compound 0.0316 µM
[20] = second compound 0.316 µM, first compound 0.1 µM
[21] = second compound 0.316 µM, first compound 0.316 µM
[22] = second compound 0.316 µM, first compound 1 µM
[23] = second compound 0.316 µM, first compound 3.16 µM
[24] = second compound 0.316 µM, first compound 10 µM
[25] = second compound 1 µM, first compound 0.0316 µM
[26] = second compound 1 µM, first compound 0.1 µM
[27] = second compound 1 µM, first compound 0.316 µM
[28] = second compound 1 µM, first compound 1 µM
[29] = second compound 1 µM, first compound 3.16 µM
[30] = second compound 1 µM, first compound 10 µM
[31] = second compound 3.16 µM, first compound 0.0316 µM
[32] = second compound 3.16 µM, first compound 0.1 µM
[33] = second compound 3.16 µM, first compound 0.316 µM
[34] = second compound 3.16 µM, first compound 1 µM
[35] = second compound 3.16 µM, first compound 3.16 µM
[36] = second compound 3.16 µM, first compound 10 µM
[37] = second compound 10 µM, first compound 0.0316 µM
[38] = second compound 10 µM, first compound 0.1 µM
[39] = second compound 10 µM, first compound 0.316 µM
[40] = second compound 10 µM, first compound 1 µM
[41] = second compound 10 µM, first compound 3.16 µM
[42] = second compound 10 µM, first compound 10 µM
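Also: spheroids exposed to agents for one week before reading.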
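For viability, T/C in this document: 100% = DMSO vehicle control viability.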

CC1COCCN1c1cc(-c2ccnn2C)c2ccnc(-c3ccn[nH]3)c2n1 (stereo not drawn) + Cc1cnc(CNC(=O)c2c(=O)c3ccc(N4CCCN(C)CC4)nc3n3c2sc2ccccc23)cn1
IC50 [1]: < 31.6 nM
IC50 [2]: < 31.6 nM
IC50 [3]: < 31.6 nM
IC50 [4]: < 31.6 nM
IC50 [5]: < 31.6 nM
IC50 [6]: < 31.6 nM
viability, T/C [7]: 33.3%
viability, T/C [8]: 10.8%
viability, T/C [9]: 10.1%
viability, T/C [10]: 11.2%
viability, T/C [11]: 14.3%
viability, T/C [12]: 20.8%
viability, T/C [13]: 28.9%
viability, T/C [14]: 12.6%
viability, T/C [15]: 10.6%
viability, T/C [16]: 10.2%
viability, T/C [17]: 12.9%
viability, T/C [18]: 15.9%
viability, T/C [19]: 29.5%
viability, T/C [20]: 16.6%
viability, T/C [21]: 13.1%
viability, T/C [22]: 11.2%
viability, T/C [23]: 12%
viability, T/C [24]: 14.7%
viability, T/C [25]: 19.1%
viability, T/C [26]: 14.2%
viability, T/C [27]: 10.4%
viability, T/C [28]: 9.64%
viability, T/C [29]: 12.4%
viability, T/C [30]: 10.6%
viability, T/C [31]: 18.9%
viability, T/C [32]: 12.2%
viability, T/C [33]: 11.1%
viability, T/C [34]: 8.14%
viability, T/C [35]: 10.1%
viability, T/C [36]: 8.5%
viability, T/C [37]: 15.4%
viability, T/C [38]: 12.7%
viability, T/C [39]: 10.5%
viability, T/C [40]: 10.9%
viability, T/C [41]: 7.61%
viability, T/C [42]: 8.53%

O=C(c1cc(Cc2n[nH]c(=O)c3ccccc23)ccc1F)N1CCN(C(=O)C2CC2)CC1 + Cc1cnc(CNC(=O)c2c(=O)c3ccc(N4CCCN(C)CC4)nc3n3c2sc2ccccc23)cn1
IC50 [1]: > 10000 nM
IC50 [2]: 2860 nM
IC50 [3]: < 31.6 nM
IC50 [4]: < 31.6 nM
IC50 [5]: < 31.6 nM
IC50 [6]: < 31.6 nM
viability, T/C [7]: 83.5%
viability, T/C [8]: 56%
viability, T/C [9]: 77.1%
viability, T/C [10]: 64.4%
viability, T/C [11]: 75.4%
viability, T/C [12]: 59.7%
viability, T/C [13]: 60.3%
viability, T/C [14]: 63.5%
viability, T/C [15]: 59.7%
viability, T/C [16]: 52.9%
viability, T/C [17]: 51.8%
viability, T/C [18]: 32.5%
viability, T/C [19]: 35.1%
viability, T/C [20]: 50%
viability, T/C [21]: 37.9%
viability, T/C [22]: 36.9%
viability, T/C [23]: 30.8%
viability, T/C [24]: 24.1%
viability, T/C [25]: 18%
viability, T/C [26]: 19.9%
viability, T/C [27]: 22.8%
viability, T/C [28]: 23.9%
viability, T/C [29]: 21.1%
viability, T/C [30]: 16.1%
viability, T/C [31]: 16.6%
viability, T/C [32]: 19.6%
viability, T/C [33]: 21.1%
viability, T/C [34]: 15.9%
viability, T/C [35]: 16.5%
viability, T/C [36]: 13.9%
viability, T/C [37]: 21.2%
viability, T/C [38]: 18.9%
viability, T/C [39]: 18.1%
viability, T/C [40]: 18.2%
viability, T/C [41]: 16.7%
viability, T/C [42]: 12.1%

O=C(c1cc(Cc2n[nH]c(=O)c3ccccc23)ccc1F)N1CCN(C(=O)C2CC2)CC1 + CN(C)c1ccc(Nc2c3ccc(NC(=O)CCN4CCCC4)cc3nc3cc(NC(=O)CCN4CCCC4)ccc23)cc1
IC50 [1]: > 10000 nM
IC50 [2]: > 10000 nM
IC50 [3]: > 10000 nM
IC50 [4]: > 10000 nM
IC50 [5]: > 10000 nM
IC50 [6]: > 10000 nM
viability, T/C [7]: 93.1%
viability, T/C [8]: 85.2%
viability, T/C [9]: 94%
viability, T/C [10]: 83.5%
viability, T/C [11]: 97.1%
viability, T/C [12]: 85.5%
viability, T/C [13]: 94.4%
viability, T/C [14]: 89.4%
viability, T/C [15]: 97.5%
viability, T/C [16]: 86.6%
viability, T/C [17]: 88.3%
viability, T/C [18]: 71.9%
viability, T/C [19]: 93%
viability, T/C [20]: 90.9%
viability, T/C [21]: 91%
viability, T/C [22]: 85.4%
viability, T/C [23]: 92.6%
viability, T/C [24]: 84.1%
viability, T/C [25]: 90%
viability, T/C [26]: 82.7%
viability, T/C [27]: 92.3%
viability, T/C [28]: 84.5%
viability, T/C [29]: 102%
viability, T/C [30]: 72.8%
viability, T/C [31]: 75.4%
viability, T/C [32]: 90.5%
viability, T/C [33]: 67.1%
viability, T/C [34]: 77.4%
viability, T/C [35]: 80%
viability, T/C [36]: 71.5%
viability, T/C [37]: 57%
viability, T/C [38]: 64.5%
viability, T/C [39]: 68.7%
viability, T/C [40]: 56.5%
viability, T/C [41]: 48.7%
viability, T/C [42]: 63%

O=C(NO)c1cnc(N2CCN(S(=O)(=O)c3ccc4ccccc4c3)CC2)nc1
viability, T/C (compound 0.0316 µM): 120% and 129% and 128%
viability, T/C (compound 0.1 µM): 106% and 103% and 98.8%
viability, T/C (compound 0.316 µM): 97.3% and 66.4% and 48.3%
viability, T/C (compound 1 µM): 42.6% and 28.9% and 15%
viability, T/C (compound 3.16 µM): 0.27% and 0.42% and 0.06%
viability, T/C (compound 10 µM): 0.25% and 0.27% and 0.09%
IC50 (curve of compound): 838 nM and 501 nM and 307 nM
